Laboratory results: publication PMC4392110, “Atom-Atom-Path similarity and Sphere Exclusion clustering: tools for prioritizing fragment hits” (Journal of Cheminformatics, 2015)

Target: MAP4K4 kinase (Homo sapiens, UniProt O95819)
Assay: MAP4K4 fragment screen, KD of fragment hits
Format: binding
Conditions: for Kd: fragment screening hits, read-out: MAP4K4 inact KD; for LE difference to the cluster seed: difference in LE to cluster seed (C02M01 or C12M01); for Ligand Efficiency: LE computed as 1.4*pKd/nHeavyAtoms
Text: Utilizing additional fragment collections, we expanded our previous ~2,500 compound screen of the MAP4K4 kinase by performing an additional screen of 8,000 compounds [28]. […] AAP similarity and DISE clustering were used to cluster the combined hit set fragments. The fragment hits were sorted according to their LE, followed by the cluster seed selection. The AAP similarity threshold in this step was 0.3. The remaining hits were assigned to the most similar cluster seed.

Chain of MAP4K4 kinase (O95819 whole entry, the tested form may be a part): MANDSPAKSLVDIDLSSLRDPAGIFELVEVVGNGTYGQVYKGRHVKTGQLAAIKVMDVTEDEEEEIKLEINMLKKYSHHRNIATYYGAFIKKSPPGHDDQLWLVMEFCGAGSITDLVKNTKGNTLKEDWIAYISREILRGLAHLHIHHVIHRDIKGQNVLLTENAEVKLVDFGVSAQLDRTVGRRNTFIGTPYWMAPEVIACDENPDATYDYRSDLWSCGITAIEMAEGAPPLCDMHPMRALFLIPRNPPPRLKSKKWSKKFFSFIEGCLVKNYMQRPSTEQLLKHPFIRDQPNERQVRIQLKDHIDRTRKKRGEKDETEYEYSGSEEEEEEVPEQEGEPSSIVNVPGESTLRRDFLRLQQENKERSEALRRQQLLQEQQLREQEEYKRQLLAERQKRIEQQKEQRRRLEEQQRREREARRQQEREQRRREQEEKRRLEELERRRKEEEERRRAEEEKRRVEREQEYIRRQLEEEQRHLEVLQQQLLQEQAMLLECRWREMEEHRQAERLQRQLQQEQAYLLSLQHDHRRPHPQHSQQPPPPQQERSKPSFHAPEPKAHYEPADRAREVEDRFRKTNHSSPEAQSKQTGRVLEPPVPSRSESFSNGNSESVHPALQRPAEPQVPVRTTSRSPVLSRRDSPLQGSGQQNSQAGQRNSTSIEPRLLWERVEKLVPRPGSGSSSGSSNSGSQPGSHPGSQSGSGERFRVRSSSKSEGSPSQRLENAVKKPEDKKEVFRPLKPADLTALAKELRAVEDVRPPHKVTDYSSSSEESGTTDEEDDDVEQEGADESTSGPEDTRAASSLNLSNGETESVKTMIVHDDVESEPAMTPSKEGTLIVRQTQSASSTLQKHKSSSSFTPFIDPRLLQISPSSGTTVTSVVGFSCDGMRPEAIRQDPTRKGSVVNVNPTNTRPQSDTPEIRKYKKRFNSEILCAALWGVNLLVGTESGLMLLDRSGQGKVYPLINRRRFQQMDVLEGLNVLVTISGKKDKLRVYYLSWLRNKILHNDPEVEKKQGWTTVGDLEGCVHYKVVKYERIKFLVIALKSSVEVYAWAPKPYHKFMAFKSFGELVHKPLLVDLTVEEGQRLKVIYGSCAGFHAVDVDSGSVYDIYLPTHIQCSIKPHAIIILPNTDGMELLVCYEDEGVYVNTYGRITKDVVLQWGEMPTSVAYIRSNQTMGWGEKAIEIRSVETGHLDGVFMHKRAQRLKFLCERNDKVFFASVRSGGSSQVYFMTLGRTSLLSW

SMILES	Kd [µM]	LE difference to the cluster seed	Ligand Efficiency
OCc1ccc(-c2cncnc2)cc1 [C02M05]	505	–	–
Nc1ncncc1-c1ccccc1 [C02M02]	28	0.13	–
Nc1c(-c2ccccc2)nn2ccccc12 [C12M05]	276	–	0.31
Nc1ncncc1-c1ccc(O)cc1 [C02M01]	0.55	–	–
c1ccc(-c2n[nH]c3ccccc23)cc1 [C12M01]	3.4	–	0.5
Nc1ncncc1-c1ccc(Cl)cc1 [C02M03]	35.5	0.17	–
Nc1n[nH]c2cc(-c3ccccc3)ccc12 [C12M02]	2.1	–	0.49

More lines, in order of falling Kd, values ahead:

Kd [µM]	LE difference to the cluster seed	Ligand Efficiency	SMILES
930	–	–	CCc1nc(N)nc(N)c1-c1ccc(Cl)cc1 [C02M06]
367	–	–	Nc1ncnc(Cl)c1-c1ccccc1 [C02M04]
16.8	0.09	0.41	Nc1ccc2[nH]nc(-c3ccccc3)c2c1 [C12M03]
